pIC50: −log10 of the molar value.
What was measured:
TrkB = biological target: T1, TrkB (Homo sapiens, UniProt Q16620); assay: Inhibition of kinase TrkB (Kinase-Glo); type: biochemical; conditions: TrkB 4 μg/ml, 40 μM ATP, two hours at 30° C.
T1 construct: purchased Upstate 14-507
Outline: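 TrkB at 4 μg/ml with 2.5 mg/ml poly-EY and 40 μM ATP in MOPS/NaOH pH 7 buffer with MgAc, EDTA, DTT, vanadate and glycerophosphate; compounds at final 10 nM–30 μM. After 2 h at 30°C, remaining ATP measured by Kinase-Glo luminescence.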

SKNAS = assay: WST test, inhibition of proliferation of SKNAS; type: cell-based; conditions: Homo sapiens, SK-N-AS, 96 h; line SKNAS, tissue of origin CMS; four days of incubation, WST-1
Procedure: (§1) The inhibition of the proliferation of cell lines by certain compounds of the invention was tested. […] In the example, the lines used were derived from cancers of the uterus, central nervous system, colon, stomach, head and neck, lung, breast, pancreas, and kidney, as well as from lymphoma, myeloma, pleura, or from melanoma.
(§2) The WST test for measuring cell proliferation and viability (Roche Applied Science) is based on cleavage of a tetrazolium salt by the mitochondrial dehydrogenases in viable cells.
(§3) After four days of incubation of the compounds with the cell line, 14 μl of WST-1 reagent is added to each well and the plates are incubated for four hours at 37° in humid atmosphere at 5% CO2. The level of formazan formed is then determined by spectrophotometry at 450 nm whereas a reference is measured at 650 nm. A control with untreated cells is represented by six wells per plate and the group of treated cells is produced in triplicate for each of the concentrations measured.
(§4) The compounds are tested at five concentrations between 10 nM and 100 μM and two cytotoxic agents are used as controls: adriamycin and 5-fluorouracil.

Rsk2 (h) = biological target: T2, Rsk2 (h) (Homo sapiens, UniProt P51812); assay: Upstate kinase panel: Rsk2; type: biochemical; conditions: compound 1 μM, ATP (10), read-out: % inhibition at 1 μMol
T2 construct: purchased Upstate
T2 sequence (P51812 whole entry): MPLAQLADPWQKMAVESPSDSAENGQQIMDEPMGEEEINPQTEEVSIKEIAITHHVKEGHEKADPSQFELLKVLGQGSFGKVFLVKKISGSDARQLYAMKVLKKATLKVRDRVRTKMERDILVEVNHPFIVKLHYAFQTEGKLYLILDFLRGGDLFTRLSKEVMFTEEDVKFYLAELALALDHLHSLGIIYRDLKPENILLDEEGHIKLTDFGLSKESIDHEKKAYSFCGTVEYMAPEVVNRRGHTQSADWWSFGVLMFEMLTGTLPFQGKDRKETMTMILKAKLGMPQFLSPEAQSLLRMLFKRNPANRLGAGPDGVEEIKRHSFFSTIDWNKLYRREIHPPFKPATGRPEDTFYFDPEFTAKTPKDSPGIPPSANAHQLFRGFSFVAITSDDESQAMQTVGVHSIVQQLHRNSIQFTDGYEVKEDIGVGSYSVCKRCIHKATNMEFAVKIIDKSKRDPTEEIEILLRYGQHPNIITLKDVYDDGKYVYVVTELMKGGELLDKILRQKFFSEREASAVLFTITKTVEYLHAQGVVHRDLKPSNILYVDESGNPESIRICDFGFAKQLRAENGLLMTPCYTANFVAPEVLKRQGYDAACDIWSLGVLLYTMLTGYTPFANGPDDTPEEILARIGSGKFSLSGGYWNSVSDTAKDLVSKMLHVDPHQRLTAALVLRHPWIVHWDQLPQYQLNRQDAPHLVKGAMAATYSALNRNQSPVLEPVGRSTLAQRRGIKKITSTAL
Procedure: (§5) These kinases are produced by Upstate and screened according to the respective protocols indicated by the supplier (http://www.upstate.com/features/kp_protocols.asp). Examples 1, 12, 166 and 238 were tested at a concentration of 20 μM, 10 μM, 1 μM and 1 μM respectively in the presence of 10 μM of ATP for examples 1 and 12 and at the concentrations of ATP shown in parentheses for examples 166 and 238. The results shown in Table VII correspond to percentage inhibition of the kinase tested in the presence of the compound, relative to a control effected without the compound.

A427 = assay: WST test, inhibition of proliferation of A427; type: cell-based; conditions: Homo sapiens, A-427, 96 h; line A427, tissue of origin Lung (NSCLC); four days of incubation, WST-1
Procedure: as §1, §2, §3, §4

A172 = assay: WST test, inhibition of proliferation of A172; type: cell-based; conditions: Homo sapiens, A 172, 96 h; line A172, tissue of origin CMS; four days of incubation, WST-1
Procedure: as §1, §2, §3, §4

SW756 = assay: WST test, inhibition of proliferation of SW756; type: cell-based; conditions: Homo sapiens, 96 h; line SW756, tissue of origin Cervix; four days of incubation, WST-1
Procedure: as §1, §2, §3, §4

HT144 = assay: WST test, inhibition of proliferation of HT144; type: cell-based; conditions: Homo sapiens, HT-144, 96 h; line HT144, tissue of origin Melanoma; four days of incubation, WST-1
Procedure: as §1, §2, §3, §4

536L = assay: WST test, inhibition of proliferation of 536L; type: cell-based; conditions: 96 h; line 536L, tissue of origin Head/neck; four days of incubation, WST-1
Procedure: as §1, §2, §3, §4

CAPAN2 = assay: WST test, inhibition of proliferation of CAPAN2; type: cell-based; conditions: Homo sapiens, Capan-2, 96 h; line CAPAN2, tissue of origin Pancreas; four days of incubation, WST-1
Procedure: as §1, §2, §3, §4

RET (h) = biological target: T3, RET (h) (Homo sapiens, UniProt P07949); assay: Upstate kinase panel: RET; type: biochemical; conditions: compound 20 μM, 10 μM ATP, read-out: % inhibition at 20 μMol
T3 construct: purchased Upstate
T3 sequence (P07949 29-1114): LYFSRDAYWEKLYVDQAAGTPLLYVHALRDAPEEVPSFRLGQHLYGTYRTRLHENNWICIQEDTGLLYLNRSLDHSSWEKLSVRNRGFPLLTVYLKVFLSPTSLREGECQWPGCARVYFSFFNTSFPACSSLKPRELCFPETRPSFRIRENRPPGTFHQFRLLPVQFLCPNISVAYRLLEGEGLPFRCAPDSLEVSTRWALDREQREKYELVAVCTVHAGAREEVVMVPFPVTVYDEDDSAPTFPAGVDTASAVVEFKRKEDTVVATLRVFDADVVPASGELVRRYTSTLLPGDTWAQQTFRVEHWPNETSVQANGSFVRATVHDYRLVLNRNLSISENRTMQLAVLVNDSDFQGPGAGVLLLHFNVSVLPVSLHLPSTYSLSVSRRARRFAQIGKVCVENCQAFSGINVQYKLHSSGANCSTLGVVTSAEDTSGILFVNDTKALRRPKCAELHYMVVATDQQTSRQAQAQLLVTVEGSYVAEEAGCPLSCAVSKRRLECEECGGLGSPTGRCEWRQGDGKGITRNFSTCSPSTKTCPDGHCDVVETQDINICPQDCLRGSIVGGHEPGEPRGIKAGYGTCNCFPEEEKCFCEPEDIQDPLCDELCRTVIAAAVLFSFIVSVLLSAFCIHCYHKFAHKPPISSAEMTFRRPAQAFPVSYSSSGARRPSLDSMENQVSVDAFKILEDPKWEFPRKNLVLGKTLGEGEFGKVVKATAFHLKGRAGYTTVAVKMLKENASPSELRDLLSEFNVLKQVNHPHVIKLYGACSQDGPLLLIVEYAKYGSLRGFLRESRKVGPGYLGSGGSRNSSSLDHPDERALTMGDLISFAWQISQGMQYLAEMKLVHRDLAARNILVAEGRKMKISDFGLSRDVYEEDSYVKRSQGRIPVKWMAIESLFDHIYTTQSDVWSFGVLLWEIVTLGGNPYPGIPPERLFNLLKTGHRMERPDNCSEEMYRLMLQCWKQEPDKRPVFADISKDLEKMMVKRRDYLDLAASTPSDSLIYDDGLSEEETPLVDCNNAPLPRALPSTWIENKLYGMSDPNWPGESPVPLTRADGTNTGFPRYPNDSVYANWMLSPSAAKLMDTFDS
Procedure: as §5

PIM-1 = biological target: T4, PIM-1 (Homo sapiens, UniProt P11309); assay: Inhibition of kinase PIM-1 (Kinase-Glo); type: biochemical; conditions: PIM-1 0.625 μg/ml, 10 μM ATP, forty minutes at 30° C.
T4 construct: purchased Upstate 14-573
T4 sequence (P11309 whole entry): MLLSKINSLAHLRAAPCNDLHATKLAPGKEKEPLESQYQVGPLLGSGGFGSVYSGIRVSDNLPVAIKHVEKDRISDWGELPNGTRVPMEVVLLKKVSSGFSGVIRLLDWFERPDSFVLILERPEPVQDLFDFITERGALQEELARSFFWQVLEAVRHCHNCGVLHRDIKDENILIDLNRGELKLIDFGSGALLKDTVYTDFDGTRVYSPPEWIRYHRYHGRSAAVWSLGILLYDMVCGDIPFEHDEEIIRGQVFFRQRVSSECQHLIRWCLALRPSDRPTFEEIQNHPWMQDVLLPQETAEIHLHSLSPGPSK
Outline: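 PIM-1 (0.625 μg/ml) in MOPS/NaOH pH 7 with Mg acetate was run with 70 μM S6 kinase/Rsk2 peptide and 10 μM ATP, with compound at 10 nM–30 μM final.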

T1 sequence (Q16620 32-822): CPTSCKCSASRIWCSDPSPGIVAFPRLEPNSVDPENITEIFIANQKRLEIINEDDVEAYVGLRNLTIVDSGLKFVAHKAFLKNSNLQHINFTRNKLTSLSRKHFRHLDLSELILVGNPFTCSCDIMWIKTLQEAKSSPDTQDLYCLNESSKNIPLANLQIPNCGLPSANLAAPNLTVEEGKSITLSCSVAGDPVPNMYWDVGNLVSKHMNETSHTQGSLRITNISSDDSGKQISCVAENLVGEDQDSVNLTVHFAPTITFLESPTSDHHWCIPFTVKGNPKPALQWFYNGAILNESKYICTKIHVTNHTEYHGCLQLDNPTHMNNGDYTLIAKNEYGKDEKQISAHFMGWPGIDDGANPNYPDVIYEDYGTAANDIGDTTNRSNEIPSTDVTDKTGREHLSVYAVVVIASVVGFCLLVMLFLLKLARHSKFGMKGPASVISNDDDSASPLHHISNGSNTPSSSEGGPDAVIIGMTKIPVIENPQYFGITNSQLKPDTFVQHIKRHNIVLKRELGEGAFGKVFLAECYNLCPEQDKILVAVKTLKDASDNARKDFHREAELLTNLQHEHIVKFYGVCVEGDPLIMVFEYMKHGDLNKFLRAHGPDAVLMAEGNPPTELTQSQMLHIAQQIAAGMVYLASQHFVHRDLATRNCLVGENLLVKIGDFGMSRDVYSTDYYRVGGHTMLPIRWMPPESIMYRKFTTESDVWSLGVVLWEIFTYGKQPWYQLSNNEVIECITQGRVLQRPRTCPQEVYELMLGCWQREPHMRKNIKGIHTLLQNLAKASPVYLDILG

For `CCOC(=O)c1c[nH]c2c(=O)[nH]c3ccc(S(=O)(=O)Nc4ccc(F)cc4)cc3c12` [Compound 12, 8-(4-Fluorophenylsulfamoyl)-4-oxo-4,5-dihydro-3H-pyrrolo[2,3-c]quinoline-1-ethyl carboxylate], the pIC50 (TrkB) was 5.00 to 6.00.

In the case of `CCOC(=O)c1c[nH]c2c(=O)[nH]c3ccc(-c4cccc(S(C)(=O)=O)c4)cc3c12` [Compound 238, 8-(3-Methanesulfonyl-phenyl)-4-oxo-4,5-dihydro-3H-pyrrolo[2,3-c]quinoline-1-ethyl carboxylate], the pIC50 (SKNAS) was 4.92, the inhibition at 1 µM (Rsk2 (h)) was 25% and the pIC50 (A427) was 4.44. For the same molecule, the pIC50 (A172) was 4.89, the pIC50 (SW756) was 4.46 and the pIC50 (HT144) was 4.51. The pIC50 (536L) was 4.44 and the pIC50 (CAPAN2) was 4.33.

For `CCOC(=O)c1c[nH]c2c(=O)[nH]c3ccccc3c12` [Compound 1, 4-Oxo-4,5-dihydro-3H-pyrrolo[2,3-c]quinoline-1-ethyl carboxylate], the inhibition at 20 µM (RET (h)) was 99% and the pIC50 (PIM-1) was 4.00 to 5.00.
